Data reported in paper PMC8949771, “Gold(I)-Mediated Rapid Cyclization of Propargylated Peptides via Imine Formation” (Journal of the American Chemical Society, 2022).

Legend:
[1] = Au(I)-mediated imine macrocyclisation (JohnPhosAu(MeCN)SbF6 2 equiv, Et4NBr 16 equiv) then in situ NaBH4 reduction to cyclic amine, HPLC isolation; conditions: the molecule shown is the open-chain precursor, DMF, 8.0 mM, 37.0 °C, 2 steps
[2] = Au(I)-mediated imine macrocyclisation: N-terminal amine adds (Markovnikov) to N-propargyl backbone amide alkyne; JohnPhosAu(MeCN)SbF6 2 equiv, Et4NBr 16 equiv; in situ NaBH4 10 equiv reduction 15 min for quantification; conditions: DMF, 8.0 mM, 37.0 °C

Structure (SMILES): C#CCN(CC(N)=O)C(=O)CNC(=O)[C@H](C)NC(=O)[C@H](CO)NC(=O)[C@H](Cc1ccc(O)cc1)NC(=O)[C@H](CC(C)C)NC(=O)CNC(=O)[C@@H](N)Cc1ccccc1 [H-Phe-Gly-Leu-Tyr-Ser-Ala-Gly-(N-propargyl)Gly-NH2]
- ring closure, yield over several steps ([1]; 24-membered ring, 1.0 h): 60%

Structure (SMILES): C#CCN(C(=O)CNC(=O)[C@H](C)NC(=O)[C@H](CCCNC(=N)N)NC(=O)[C@H](Cc1ccc(O)cc1)NC(=O)[C@H](CC(C)C)NC(=O)CNC(=O)[C@@H](N)Cc1ccccc1)[C@H](C(N)=O)[C@@H](C)CC [H-Phe-Gly-Leu-Tyr-Arg-Ala-Gly-(N-propargyl)Ile-NH2]
- ring closure, yield over several steps ([1]; 24-membered ring, 1.0 h): 60%

Structure (SMILES): C#CCN(CC(N)=O)C(=O)CNC(=O)[C@H](C)NC(=O)[C@H](CCCNC(=N)N)NC(=O)[C@H](Cc1ccc(O)cc1)NC(=O)[C@H](CC(C)C)NC(=O)CNC(=O)[C@@H](N)Cc1ccccc1 [H-Phe-Gly-Leu-Tyr-Arg-Ala-Gly-(N-propargyl)Gly-NH2]
- ring closure, yield over several steps ([1]; 24-membered ring, 0.5 h): 75%

Structure (SMILES): C#CCN(CC(N)=O)C(=O)CNC(=O)[C@H](C)NC(=O)[C@H](CCCNC(=N)N)NC(=O)[C@H](Cc1ccc(O)cc1)NC(=O)[C@H](CC(C)C)NC(=O)[C@H](CCCCN)NC(=O)CNC(=O)OCC1c2ccccc2-c2ccccc21 [Fmoc-Gly-Lys-Leu-Tyr-Arg-Ala-Gly-(N-propargyl)Gly-NH2]
- ring closure, yield over several steps ([1]; 25-membered ring, 1.0 h): 61%

Structure (SMILES): C#CCN(CC(N)=O)C(=O)[C@@H](NC(=O)[C@H](C)NC(=O)[C@H](CCCNC(=N)N)NC(=O)[C@H](Cc1ccc(O)cc1)NC(=O)[C@H](CC(C)C)NC(=O)CNC(=O)[C@@H](N)Cc1ccccc1)[C@@H](C)CC [H-Phe-Gly-Leu-Tyr-Arg-Ala-Ile-(N-propargyl)Gly-NH2]
- ring closure, yield over several steps ([1]; 24-membered ring, 1.0 h): 66%

Structure (SMILES): CC(C)C[C@@H]1NC(=O)CNC(=O)[C@H](Cc2c[nH]cn2)NC(C)CN(CC(N)=O)C(=O)CNC(=O)[C@H](C)NC(=O)[C@H](CCCNC(=N)N)NC(=O)[C@H](Cc2ccc(O)cc2)NC1=O (stereo partly drawn) [H-His-Gly-Leu-Tyr-Arg-Ala-Gly-(N-propargyl)Gly-NH2]
- ring closure, conversion by HPLC ([2]; from C#CCN(CC(N)=O)C(=O)CNC(=O)[C@H](C)NC(=O)[C@H](CCCNC(=N)N)NC(=O)[C@H](Cc1ccc(O)cc1)NC(=O)[C@H](CC(C)C)NC(=O)CNC(=O)[C@@H](N)Cc1c[nH]cn1, 24-membered ring, 1.0 h): 90%

Structure (SMILES): CC(C)C[C@@H]1NC(=O)CNC(=O)CNC(=O)CNC(C)CN(CC(N)=O)C(=O)CNC(=O)[C@H](C)NC(=O)[C@H](CCCNC(=N)N)NC(=O)[C@H](Cc2ccc(O)cc2)NC1=O (stereo partly drawn) [H-Gly-Gly-Gly-Leu-Tyr-Arg-Ala-Gly-(N-propargyl)Gly-NH2]
- ring closure, conversion by HPLC ([2]; from C#CCN(CC(N)=O)C(=O)CNC(=O)[C@H](C)NC(=O)[C@H](CCCNC(=N)N)NC(=O)[C@H](Cc1ccc(O)cc1)NC(=O)[C@H](CC(C)C)NC(=O)CNC(=O)CNC(=O)CN, 27-membered ring, 0.5 h): 91%

Structure (SMILES): CC(C)C[C@@H]1NC(=O)CNC(=O)[C@H](Cc2ccccc2)NC(C)CN(CC(N)=O)C(=O)CNC(=O)[C@H](C)NC(=O)[C@H](CCC(N)=O)NC(=O)[C@H](Cc2ccc(O)cc2)NC1=O (stereo partly drawn) [H-Phe-Gly-Leu-Tyr-Gln-Ala-Gly-(N-propargyl)Gly-NH2]
- ring closure, conversion by HPLC ([2]; from C#CCN(CC(N)=O)C(=O)CNC(=O)[C@H](C)NC(=O)[C@H](CCC(N)=O)NC(=O)[C@H](Cc1ccc(O)cc1)NC(=O)[C@H](CC(C)C)NC(=O)CNC(=O)[C@@H](N)Cc1ccccc1, 24-membered ring, 1.0 h): 64%

Structure (SMILES): CC(C)C[C@@H]1NC(=O)CNC(=O)[C@H](Cc2ccccc2)NC(C)CN(CC(N)=O)C(=O)CNC(=O)[C@H](C)NC(=O)[C@H](CCCNC(=N)N)NC(=O)[C@H](Cc2ccc(O)cc2)NC1=O (stereo partly drawn) [H-Phe-Gly-Leu-Tyr-Arg-Ala-Gly-(N-propargyl)Gly-NH2]
- ring closure, conversion by HPLC ([2]; from C#CCN(CC(N)=O)C(=O)CNC(=O)[C@H](C)NC(=O)[C@H](CCCNC(=N)N)NC(=O)[C@H](Cc1ccc(O)cc1)NC(=O)[C@H](CC(C)C)NC(=O)CNC(=O)[C@@H](N)Cc1ccccc1, 24-membered ring, 0.5 h): 85%

Structure (SMILES): CC(C)C[C@@H]1NC(=O)CNC(C)CN(CC(N)=O)C(=O)CNC(=O)CNC(=O)CNC(=O)[C@H](C)NC(=O)[C@H](CCCNC(=N)N)NC(=O)[C@H](Cc2ccc(O)cc2)NC(=O)[C@H](CC(C)C)NC(=O)[C@H](Cc2ccccc2)NC(=O)[C@H](C)NC(=O)[C@H](CCCNC(=N)N)NC(=O)[C@H](Cc2ccc(O)cc2)NC1=O (stereo partly shown)
- ring closure, conversion by HPLC ([2]; from C#CCN(CC(N)=O)C(=O)CNC(=O)CNC(=O)CNC(=O)[C@H](C)NC(=O)[C@H](CCCNC(=N)N)NC(=O)[C@H](Cc1ccc(O)cc1)NC(=O)[C@H](CC(C)C)NC(=O)[C@H](Cc1ccccc1)NC(=O)[C@H](C)NC(=O)[C@H](CCCNC(=N)N)NC(=O)[C@H](Cc1ccc(O)cc1)NC(=O)[C@H](CC(C)C)NC(=O)CN, 42-membered ring, 1.0 h): 90%

Structure (SMILES): CC(C)C[C@@H]1NC(=O)CNC(=O)[C@H](Cc2ccccc2)NC(C)CN([C@@H](CC(=O)O)C(N)=O)C(=O)CNC(=O)[C@H](C)NC(=O)[C@H](CCCNC(=N)N)NC(=O)[C@H](Cc2ccc(O)cc2)NC1=O (stereo partly drawn) [H-Phe-Gly-Leu-Tyr-Arg-Ala-Gly-(N-propargyl)Asp-NH2]
- ring closure, conversion by HPLC ([2]; from C#CCN(C(=O)CNC(=O)[C@H](C)NC(=O)[C@H](CCCNC(=N)N)NC(=O)[C@H](Cc1ccc(O)cc1)NC(=O)[C@H](CC(C)C)NC(=O)CNC(=O)[C@@H](N)Cc1ccccc1)[C@@H](CC(=O)O)C(N)=O, 24-membered ring, 1.0 h): 56%

Structure (SMILES): CC(C)C[C@@H]1NC(=O)CNC(=O)[C@H](Cc2ccccc2)NC(C)CN(CC(N)=O)C(=O)[C@H](C)NC(=O)[C@H](C)NC(=O)[C@H](CCCNC(=N)N)NC(=O)[C@H](Cc2ccc(O)cc2)NC1=O (stereo partly drawn) [H-Phe-Gly-Leu-Tyr-Arg-Ala-Ala-(N-propargyl)Gly-NH2]
- ring closure, conversion by HPLC ([2]; from C#CCN(CC(N)=O)C(=O)[C@H](C)NC(=O)[C@H](C)NC(=O)[C@H](CCCNC(=N)N)NC(=O)[C@H](Cc1ccc(O)cc1)NC(=O)[C@H](CC(C)C)NC(=O)CNC(=O)[C@@H](N)Cc1ccccc1, 24-membered ring, 1.0 h): 89%

Structure (SMILES): CC(C)C[C@@H]1NC(=O)CNC(=O)[C@H](Cc2ccccc2)NC(C)CN(CC(N)=O)C(=O)[C@H](CC(=O)O)NC(=O)[C@H](C)NC(=O)[C@H](CCCNC(=N)N)NC(=O)[C@H](Cc2ccc(O)cc2)NC1=O (stereo partly drawn) [H-Phe-Gly-Leu-Tyr-Arg-Ala-Asp-(N-propargyl)Gly-NH2]
- ring closure, conversion by HPLC ([2]; from C#CCN(CC(N)=O)C(=O)[C@H](CC(=O)O)NC(=O)[C@H](C)NC(=O)[C@H](CCCNC(=N)N)NC(=O)[C@H](Cc1ccc(O)cc1)NC(=O)[C@H](CC(C)C)NC(=O)CNC(=O)[C@@H](N)Cc1ccccc1, 24-membered ring, 1.0 h): 80%

Structure (SMILES): CC(C)C[C@@H]1NC(=O)CNC(=O)[C@H](CO)NC(C)CN(CC(N)=O)C(=O)CNC(=O)[C@H](C)NC(=O)[C@H](CCCNC(=N)N)NC(=O)[C@H](Cc2ccc(O)cc2)NC1=O (stereo partly drawn) [H-Ser-Gly-Leu-Tyr-Arg-Ala-Gly-(N-propargyl)Gly-NH2]
- ring closure, conversion by HPLC ([2]; from C#CCN(CC(N)=O)C(=O)CNC(=O)[C@H](C)NC(=O)[C@H](CCCNC(=N)N)NC(=O)[C@H](Cc1ccc(O)cc1)NC(=O)[C@H](CC(C)C)NC(=O)CNC(=O)[C@@H](N)CO, 24-membered ring, 1.0 h): 75%

Structure (SMILES): CC(C)C[C@@H]1NC(=O)CNC(=O)[C@H](Cc2ccccc2)NC(C)CN(CC(N)=O)C(=O)CNC(=O)[C@H](C)NC(=O)[C@@H]2CCCN2C(=O)[C@H](Cc2ccc(O)cc2)NC1=O (stereo partly drawn) [H-Phe-Gly-Leu-Tyr-Pro-Ala-Gly-(N-propargyl)Gly-NH2]
- ring closure, conversion by HPLC ([2]; from C#CCN(CC(N)=O)C(=O)CNC(=O)[C@H](C)NC(=O)[C@@H]1CCCN1C(=O)[C@H](Cc1ccc(O)cc1)NC(=O)[C@H](CC(C)C)NC(=O)CNC(=O)[C@@H](N)Cc1ccccc1, 24-membered ring, 1.0 h): 77%

Structure (SMILES): CC(C)C[C@@H]1NC(=O)CNC(C)CN(CC(N)=O)C(=O)CNC(=O)[C@H](C)NC(=O)[C@H](Cc2ccc(O)cc2)NC1=O (stereo partly drawn) [H-Gly-Leu-Tyr-Ala-Gly-(N-propargyl)Gly-NH2]
- ring closure, conversion by HPLC ([2]; from C#CCN(CC(N)=O)C(=O)CNC(=O)[C@H](C)NC(=O)[C@H](Cc1ccc(O)cc1)NC(=O)[C@H](CC(C)C)NC(=O)CN, 18-membered ring, 0.5 h): 79%

Structure (SMILES): CC(C)C[C@@H]1NC(=O)CNC(=O)[C@H](Cc2ccccc2)NC(C)CN(CC(N)=O)C(=O)[C@H](CO)NC(=O)[C@H](C)NC(=O)[C@H](CCCNC(=N)N)NC(=O)[C@H](Cc2ccc(O)cc2)NC1=O (stereo partly drawn) [H-Phe-Gly-Leu-Tyr-Arg-Ala-Ser-(N-propargyl)Gly-NH2]
- ring closure, conversion by HPLC ([2]; from C#CCN(CC(N)=O)C(=O)[C@H](CO)NC(=O)[C@H](C)NC(=O)[C@H](CCCNC(=N)N)NC(=O)[C@H](Cc1ccc(O)cc1)NC(=O)[C@H](CC(C)C)NC(=O)CNC(=O)[C@@H](N)Cc1ccccc1, 24-membered ring, 1.0 h): 64%

Structure (SMILES): CC[C@H](C)[C@@H]1NC(C)CN(CC(N)=O)C(=O)CNC(=O)[C@H](C)NC(=O)[C@H](CCCNC(=N)N)NC(=O)[C@H](Cc2ccc(O)cc2)NC(=O)[C@H](CC(C)C)NC(=O)CNC1=O (stereo partly drawn) [H-Ile-Gly-Leu-Tyr-Arg-Ala-Gly-(N-propargyl)Gly-NH2]
- ring closure, conversion by HPLC ([2]; from C#CCN(CC(N)=O)C(=O)CNC(=O)[C@H](C)NC(=O)[C@H](CCCNC(=N)N)NC(=O)[C@H](Cc1ccc(O)cc1)NC(=O)[C@H](CC(C)C)NC(=O)CNC(=O)[C@@H](N)[C@@H](C)CC, 24-membered ring, 1.0 h): 76%

Structure (SMILES): CC(C)C[C@@H]1NC(=O)CNC(C)CN(CC(N)=O)C(=O)CNC(=O)[C@H](C)NC(=O)[C@H](CS)NC(=O)[C@H](Cc2ccc(O)cc2)NC1=O (stereo partly drawn) [H-Gly-Leu-Tyr-Cys-Ala-Gly-(N-propargyl)Gly-NH2]
- ring closure, conversion by HPLC ([2]; from C#CCN(CC(N)=O)C(=O)CNC(=O)[C@H](C)NC(=O)[C@H](CS)NC(=O)[C@H](Cc1ccc(O)cc1)NC(=O)[C@H](CC(C)C)NC(=O)CN, 21-membered ring, 0.5 h): 75%
